We go through ten compounds from article PMC11944387, “Cannabidiol-Based Thiosemicarbazones: A Preliminary Study Evaluating Their Anti-Tyrosinase Properties” (Molecules, 2025).

Assay [1] is described as follows: DPPH radical-scavenging assay. Particulars: 100 μM DPPH in ethanol, 30 min at room temperature in the dark, absorbance 517 nm; mean ± SD. As for the experimental part: The total antioxidant capacity of the synthesized compounds was determined using the DPPH radical as a reagent, according to the procedure described by Chang et al. with some modifications. Briefly, 100 μL of 100 μM solution of DDPH in ethanol was added to 10 μL of the synthesized compounds at different concentrations (500, 250, 125, 62.5, 31.25, 15.62, and 7.81 μM). […] The percentage of the inhibition of DPPH oxidation was calculated according to the following formula: DPPHscavengingeffect%=Acontrol−Asample/Acontrol×100 where Acontrol means the absorbance of the control sample and Asample means the absorbance of the standard or tested compound.
Background: The DPPH test is a chemical assay of radical scavenging.

The nature of assay [2]: Ferric-reducing antioxidant power (FRAP) assay. The following applies: trolox equivalent; 45 min at 37 °C, absorbance 595 nm. As for the experimental part:
The antioxidant capacity of the synthesized compounds was evaluated by the reduction of the ferric 2,4,6-tripyridyl-s-triazine complex (Fe^3+-TPTZ) to the ferrous form (Fe^2+-TPTZ) at low pH, which causes a colored ferrous–tripyridyltriazine complex to form, according to the procedure described by Benzie et al., with some modifications. Briefly, 20 µL of the tested compound was mixed with 130 µL FRAP reagent (buffer acetate pH = 3.6, 10 mM TPTZ, 40 mM HCl, 20 mM FeCl3/H2O ratio 10:1:1) and then incubated for 45 min at 37 °C. FRAP values were obtained by comparing the absorbance change at 595 nm in test reaction mixtures with those containing ferrous ions in known concentrations using trolox as a calibration curve (concentrations between 7.8 and 500 µM). The results were expressed as μM of trolox equivalent (TE). The absorbance was measured using a Tecan Infinite 200 PRO plate reader.

Assay [3] deals with mushroom TYR. Briefly: Inhibition of diphenolase activity of mushroom TYR (L-DOPA substrate). It counts as biochemical, Agaricus bisporus. The following applies: for IC50: diphenolase activity, L-DOPA 2 mM, pH 6.8, 37 °C, read-out: IC50 against mushroom TYR catalyzing oxidation of L-DOPA; for Inhibitory activity on TYR (in words): discussion of Table 1, mushroom TYR. As for the experimental part:
The inhibitory effects of the thiosemicarbazone–CBD–aldehyde derivatives on the diphenolase activity of mushroom TYR were assessed by UV-Vis spectrometry using L-DOPA as the substrate.
A potassium phosphate buffer (80 μL, 50 mM, pH 6.8), 20 μL of tyrosinase (100 units/mL), and 2 μL of the tested compounds (10–150 μM) dissolved in dimethyl sulfoxide (DMSO) were added to 96-well plates. After incubation at 37 °C for 20 min, 100 μL of L-DOPA (2 mM) was added. The absorbance changes at 475 nm (ε = 3.7 × 10^3 M^−1cm^−1) were immediately monitored for 20 min at 37 °C using a Tecan Infinite 200 PRO plate reader. […] Dose–response curves were generated by conducting assays with increasing concentrations of each inhibitor. To ensure measurement accuracy, all experiments were performed in triplicate, with the average value used as the final result.

Assay [4] deals with mushroom TYR. Briefly: Monophenolase inhibition assay of mushroom TYR (L-tyrosine substrate), lag time. Particulars: oxidation of L-tyrosine by mushroom TYR; for Lag time: compound 20 μM, without inhibitor 4.40 min; for Lag phase: control 264 s. The class given is biochemical, Agaricus bisporus. As for the experimental part: Additionally, the impact of the newly synthesized compounds on the initial stage of TYR enzymatic activity was evaluated using L-tyrosine as the substrate. This initial phase is characterized by a lag period and an increased reaction rate.
[…] After incubation at 37 °C for 20 min, 100 μL of L-tyrosine (2 mM) was added. The absorbance changes at 475 nm were immediately monitored for 40 min at 37 °C using a Tecan Infinite 200 PRO plate reader. The lag time was determined from the plot of absorbance at 475 nm versus time (min) by extrapolating the linear portion of the curve to the x-axis.

Assay [5] concerns mushroom TYR. Briefly: Fluorescence quenching assay of TYR. It counts as binding, Agaricus bisporus. The following applies: 310 K; for kq (bimolecular quenching rate constant): from Ksv with τ0 = 10^−8 s; for ka (binding constant): static quenching, double-log equation; for Ksv (Stern–Volmer quenching constant): λex 280 nm, pH 6.8. As for the experimental part: The fluorescence quenching spectra were recorded with an excitation wavelength (λex = 280 nm) and excitation and emission slit widths of 5 nm. A potassium phosphate buffer (80 μL, 50 mM, pH 6.8), 20 μL of tyrosinase (100 units/mL), and 2 μL of the tested compounds (10–100 μM) dissolved in DMSO were added to 96-well plates. After incubating at 37 °C for 20 min, the fluorescence spectrum was recorded at an emission range from 315 to 415 nm. Fluorescence quenching is described by the Stern–Volmer equation [69]: F0/F=1+Kqτ0[Q]=1+ksv[Q]
For the static quenching interaction, the binding affinity (Ka) and the number of binding sites (n) between the inhibitor and TYR were determined using the following calculations:(1) logF0−F/F=nlogQ+logka where F and F0 represent the fluorescence intensities of protein in the presence and absence of a quencher, respectively. [Q] is the quencher concentration. Ksv is the Stern–Volmer quenching constant, and kq is the rate constant of the bimolecular quenching process. τ0 is the average fluorescence lifetime of the fluorophores in the absence of the quencher, with a typical value of 10^−8 s for biological macromolecules.

The test system of assay [6] is mushroom TYR. Briefly: Inhibition kinetics on diphenolase activity of TYR (Lineweaver–Burk). It counts as biochemical, Agaricus bisporus. The following applies: Lineweaver–Burk plot, L-DOPA 0.1–1 mM, compound 2.5–30 μM. As for the experimental part:
The inhibition mechanism of compound 5 on the diphenolase activity of TYR was further studied. The inhibition type was determined by the classical Lineweaver–Burk plot based on the inhibitory results of 5.
To evaluate the inhibition kinetics of tyrosinase, assays were conducted in phosphate buffer (50 mM, pH 6.8) using L-DOPA as the substrate (0.1–1 mM) and tyrosinase ([…]) in the presence of varying concentrations of compound 5 (2.5–30 μM) under the same conditions as described in Section 4.4. Absorbance changes at 475 nm were continuously monitored for 40 min at 37 °C using a Tecan Infinite 200 PRO plate reader. Initial reaction velocities (V0) were determined for each inhibitor concentration, and kinetic parameters (Kₘ and Vₘₐₓ) were analyzed using Lineweaver–Burk and Michaelis–Menten plots to determine the type of inhibition. All experiments were performed in triplicate to ensure reproducibility.

Where “and” joins values, the source holds several entries; their conditions need not be identical. Identical values can stand only once. Entries after “also recorded” stand apart in the source; their conditions may differ.

In assay [1], `C=C(C)[C@@H]1CCC(C)=C[C@H]1c1c(O)cc(CCCCC)c(/C=N/NC(=S)N(C)C)c1O` [Compound 7, 3-(4,4-dimethyl-3-thiosemicarbazone)–CBD–aldehyde] had an IC50 of 116 ± 5.05 µM. Moreover, in assay [2], the FRAP value amounted to 981.9 ± 9.66 μM TE. Further, the IC50 on mushroom TYR [3] came to 28.1 ± 1.82 µM. In the assay on mushroom TYR [4], the Lag time was 6.19 min and 6.19 ± 0.27 min; the Lag phase was determined as 371 s. In the assay on mushroom TYR [5], the “kq (bimolecular quenching rate constant)” value came out at 1.38e+12 M⁻¹ s⁻¹, the “ka (binding constant)” value is 5200 M⁻¹ and the “Ksv (Stern–Volmer quenching constant)” value was 13800 M⁻¹.
`C=C(C)[C@@H]1CCC(C)=C[C@H]1c1c(O)cc(CCCCC)c(/C=N/NC(=S)NC)c1O` [Compound 6, 3-(4-methyl-3-thiosemicarbazone)–CBD–aldehyde] yielded an IC50 in assay [1] of 63.7 ± 3.29 µM. Besides, the IC50 on mushroom TYR [3] came to 29.4 ± 2.22 µM. Moreover, in the assay on mushroom TYR [4], the Lag time was 6.06 min and 6.06 ± 0.11 min; the Lag phase worked out at 363 s. Besides, in the assay with mushroom TYR [5], the “kq (bimolecular quenching rate constant)” value came to 9.98e+11 M⁻¹ s⁻¹, the “ka (binding constant)” value is 8700 M⁻¹ and the “Ksv (Stern–Volmer quenching constant)” value stood at 9980 M⁻¹.
Consider `C=C(C)[C@@H]1CCC(C)=C[C@H]1c1c(O)cc(CCCCC)c(C=O)c1O` [Compound 2], for which, on mushroom TYR [3], the concentration for half-maximal inhibition (IC50) was above 100 µM.
For `Cc1c(C)c2c(c(C)c1O)CCC(C)(C(=O)O)O2` (stereo not shown) [trolox, reference compound], in assay [1], the IC50 worked out at 54.6 ± 3.45 µM.
Turning to `C=C(C)[C@@H]1CCC(C)=C[C@H]1c1c(O)cc(CCCCC)cc1O` [Compound 1, Cannabidiol], the IC50 in assay [1] is 506.1 ± 4.67 µM; on mushroom TYR [3], above 100 µM. Besides, the FRAP value in assay [2] is on record as 282.1 ± 5.68 μM TE.
`C=C(C)[C@@H]1CCC(C)=C[C@H]1c1c(O)cc(CCCCC)c(/C=N/NC(N)=O)c1O` [Compound 3]: on mushroom TYR [3], the IC50 was above 100 µM and the “Inhibitory activity on TYR (in words)” value is recorded as “did not exhibit any inhibitory activity”.
Turning to `C=C(C)[C@@H]1CCC(C)=C[C@H]1c1c(O)cc(CCCCC)c(/C=N/NC(N)=S)c1O` [Compound 5, 3-thiosemicarbazone–CBD–aldehyde], the IC50 in assay [1] turned out to be 53.5 ± 5.29 µM. For the same compound, in assay [2], the FRAP value amounted to 1257 ± 6.78 μM TE. In addition, the IC50 on mushroom TYR [3] turned out to be 27.7 ± 1.84 µM. Also, in the assay with mushroom TYR [4], the Lag time is 9.89 min and 9.89 ± 0.66 min; the Lag phase is 593 s. In addition, in the assay on mushroom TYR [6], the Inhibition type entry is “mixed-type inhibition; also recorded: reversible, mixed-type inhibitor”. Further, in the assay with mushroom TYR [5], the “kq (bimolecular quenching rate constant)” value was found to be 7.61e+11 M⁻¹ s⁻¹, the “ka (binding constant)” value is 12100 M⁻¹ and the “Ksv (Stern–Volmer quenching constant)” value was 7610 M⁻¹.
With `C=C(C)[C@@H]1CCC(C)=C[C@H]1c1c(O)cc(CCCCC)c(/C=N/NC(=N)N)c1O` [Compound 4], on mushroom TYR [3], the IC50 is above 100 µM and the “Inhibitory activity on TYR (in words)” value was “did not exhibit any inhibitory activity”.
The compound `C=C(C)[C@@H]1CCC(C)=C[C@H]1c1c(OC)cc(CCCCC)c(/C=N/NC(N)=S)c1OC` [Compound 9, 3-thiosemicarbazone–CBD–dimethylether] yielded an IC50 in assay [1] of 316 ± 16 µM. In assay [2], the FRAP value came out at 431.5 ± 13.51 μM TE. For the same compound, the IC50 on mushroom TYR [3] was determined as 22.4 ± 2.9 µM. For the same compound, in the assay on mushroom TYR [4], the Lag time is 6.67 min and 6.67 ± 0.17 min; the Lag phase is 400 s. In the assay with mushroom TYR [5], the “kq (bimolecular quenching rate constant)” value turned out to be 1.3e+12 M⁻¹ s⁻¹, the “ka (binding constant)” value is 13100 M⁻¹ and the “Ksv (Stern–Volmer quenching constant)” value amounted to 13000 M⁻¹.
Take `C=C(C)[C@@H]1CCC(C)=C[C@H]1c1c(O)cc(CCCCC)c(/C=N/NC(=S)Nc2ccccc2)c1O` [Compound 8, 3-(4-phenyl-3-thiosemicarbazone)–CBD–aldehyde]: in assay [1], the midpoint of inhibition, the IC50, lay at 57.6 ± 1.71 µM. Besides, the FRAP value in assay [2] is 931.7 ± 8.97 μM TE. Further, the IC50 at mushroom TYR [3] amounted to 42.2 ± 3.52 µM. In the assay with mushroom TYR [4], the Lag time is 4.58 min and 4.58 ± 0.04 min; the Lag phase came out at 274 s. Moreover, in the assay on mushroom TYR [5], the “kq (bimolecular quenching rate constant)” value was 4.68e+12 M⁻¹ s⁻¹, the “ka (binding constant)” value was 25500 M⁻¹ and the “Ksv (Stern–Volmer quenching constant)” value was 46800 M⁻¹.

As usually defined, the IC50 is the concentration that inhibits the measured activity by half.
